According to patent US8754054B2, “Antibacterial compounds, methods of making them, and uses thereof” (Albany Molecular Research, Inc., priority 2010, dated 2014):
In brackets after ≈: the same amount, converted by molar mass.

System: MRSA 43300
Assay: Antibacterial activity, NCCLS dilution method (Table 9)
Format: cell-based, S. aureus
Settings: Staphylococcus aureus, MRSA, MRSA 43300; dilution method; labels marked a tested as a mixture of diastereomers; read-out: MRSA 43300 MIC
Excerpt: NCCLS standards for antimicrobial susceptibility testing using the dilution method were followed. See: Performance Standards for Antimicrobial Susceptibility Testing; Fourteenth Informational Supplement. NCCLS Document M100-S14 (ISBN 1-56238-516-X), 2004. NCCLS, 940 West Valley Road, Suite 1400, Wayne, Pa. 19087-1898 USA, 2004; Methods for Dilution Antimicrobial Susceptibility Tests for Bacteria that Grow Aerobically; Approved Standard—Sixth Edition. NCCLS document M7-A6 (IBSBN 1-56238-486-4), NCCLS, 940 West Valley Road, Suite 1400, Wayne, Pa. 19087-1898 USA, 2003, which are hereby incorporated by reference in their entirety.

Row | SMILES | MIC
1 | CCOC(=O)c1c(C)cc2c(c1O)[C@]1(O)C(=O)c3cc4c(c(O)c3C(=O)[C@]1(OC)[C@H](O)C2)C(=O)C=C(N[C@H]1O[C@@H](C)[C@H](OC)[C@@H](O)[C@H]1OC)C4=O [Example 34, (6R,6aS,14aR)-Ethyl 1,6,8,14a-tetrahydroxy-11-((2S,3R,4R,5R,6S)-4-hydroxy-3,5-dimethoxy-6-methyltetrahydro-2H-pyran-2-ylamino)-6a-methoxy-3-methyl-7,9,12,14-tetraoxo-5,6,6a,7,9,12,14,14a-octahydrobenzo[a]tetracene-2-carboxylate] | 0.008 to 0.016 µg/mL (≈ 0.0112 to 0.0225 µM)
2 | COC(=O)c1c(C)cc2c(c1OC)[C@]1(O)C(=O)c3cc4c(c(O)c3C(=O)[C@]1(OC)[C@H](O)C2)C(=O)C=C(N[C@H]1O[C@@H](C)[C@H](OC)[C@@H](O)[C@H]1OC)C4=O [Example 4, (6R,6aS,14aR)-Methyl 6,8,14a-trihydroxy-11-((2S,3R,4R,5R,6S)-4-hydroxy-3,5-dimethoxy-6-methyltetrahydro-2H-pyran-2-ylamino)-1,6a-dimethoxy-3-methyl-7,9,12,14-tetraoxo-5,6,6a,7,9,12,14,14a-octahydrobenzo[a]tetracene-2-carboxylate] | 0.06 to 0.12 µg/mL (≈ 0.0843 to 0.169 µM)
3 | COCC/N=C1\C=C(N[C@H]2O[C@@H](C)[C@H](OC)[C@@H](O)[C@H]2OC)C(=O)c2cc3c(c(O)c21)C(=O)[C@]1(OC)[C@H](O)Cc2cc(C)c(C(=O)OC)c(O)c2[C@]1(O)C3=O [Example 46, (6R,6aS,14aR,E)-methyl 1,6,8,14a-tetrahydroxy-11-((2S,3R,4R,5R,6S)-4-hydroxy-3,5-dimethoxy-6-methyltetrahydro-2H-pyran-2-ylamino)-6a-methoxy-9-(2-methoxyethylimino)-3-methyl-7,12,14-trioxo-5,6,6a,7,9,12,14,14a-octahydrobenzo[a]tetracene-2-carboxylate] | 1 µg/mL (≈ 1.32 µM)
4 | COC(=O)c1c(C)c(Br)c2c(c1O)[C@]1(O)C(=O)c3cc4c(c(O)c3C(=O)[C@]1(OC)[C@H](O)C2)C(=O)C=C(N[C@H]1O[C@@H](C)[C@H](OC)[C@@H](O)[C@H]1OC)C4=O [Example 38, (6R,6aS,14aR)-Methyl 4-bromo-1,6,8,14a-tetrahydroxy-11-((2S,3R,4R,5R,6S)-4-hydroxy-3,5-dimethoxy-6-methyltetrahydro-2H-pyran-2-ylamino)-6a-methoxy-3-methyl-7,9,12,14-tetraoxo-5,6,6a,7,9,12,14,14a-octahydrobenzo[a]tetracene-2-carboxylate] | 1 µg/mL (≈ 1.29 µM)
5 | CO[C@@H]1[C@@H](O)[C@@H](OC)[C@@H](NC2=CC(=O)c3c(cc4c(c3O)C(=O)[C@]3(OC)[C@H](O)Cc5cc(C)c(C(N)=O)c(O)c5[C@]3(O)C4=O)C2=O)O[C@H]1C [Example 20, (6R,6aS,14aR)-1,6,8,14a-Tetrahydroxy-11-((2S,3R,4R,5R,6S)-4-hydroxy-3,5-dimethoxy-6-methyltetrahydro-2H-pyran-2-ylamino)-6a-methoxy-3-methyl-7,9,12,14-tetraoxo-5,6,6a,7,9,12,14,14a-octahydrobenzo[a]tetracene-2-carboxamide] | 2 µg/mL (≈ 2.93 µM)
6 | COC(=O)c1c(C)cc2c(c1O)[C@]1(O)C(=O)c3cc4c5c(nc(=O)oc5c3C(=O)[C@]1(OC)[C@H](O)C2)C=C(N[C@H]1O[C@@H](C)[C@H](OC)[C@@H](O)[C@H]1OC)C4=O [Example 60, (8aR,12R,12aS)-8a,12-Dihydroxy-5-((2S,3R,4R,5R,6S)-4-hydroxy-3,5-dimethoxy-6-methyltetrahydro-2H-pyran-2-ylamino)-12a-methoxy-8a,9,10,11,12,12a-hexahydro-(1-hydroxy-2-methoxycarbonyl-3-methylbenzo) [9,10-a]tetraceno[1,12-de][1,3]oxazine-2,6,8,13-tetraone] | 0.12 to 0.5 µg/mL (≈ 0.166 to 0.692 µM)
7 | CO[C@@H]1[C@@H](O)[C@@H](OC)C(NC2=CC(=O)c3c(cc4c(c3O)C(=O)[C@]3(OC)[C@H](O)Cc5cc(C)c(C(=O)NCc6ccccc6)c(O)c5[C@]3(O)C4=O)C2=O)O[C@H]1C (mixture of isomers) [Example 30, (6R,6aS,14aR)—N-Benzyl-1,6,8,14a-tetrahydroxy-11-((3R,4R,5R,6S)-4-hydroxy-3,5-dimethoxy-6-methyltetrahydro-2H-pyran-2-ylamino)-6a-methoxy-3-methyl-7,9,12,14-tetraoxo-5,6,6a,7,9,12,14,14a-octahydrobenzo[a]tetracene-2-carboxamide] | 0.12 to 0.5 µg/mL (≈ 0.155 to 0.647 µM)
8 | CO[C@@H]1[C@@H](O)[C@@H](OC)C(NC2=CC(=O)c3c(cc4c(c3O)C(=O)[C@]3(OC)[C@H](O)Cc5cc(C)c(C(=O)N(C)C)c(O)c5[C@]3(O)C4=O)C2=O)O[C@H]1C (mixture of isomers) [Example 16, (6R,6aS,14aR)-1,6,8,14a-Tetrahydroxy-11-((3R,4R,5R,6S)-4-hydroxy-3,5-dimethoxy-6-methyltetrahydro-2H-pyran-2-ylamino)-6a-methoxy-N,N,3-trimethyl-7,9,12,14-tetraoxo-5,6,6a,7,9,12,14,14a-octahydrobenzo[a]tetracene-2-carboxamide] | 16 µg/mL (≈ 22.5 µM)
9 | COC(=O)c1c(C)cc2c(c1OCc1ccccc1)[C@]1(O)C(=O)c3cc4c(c(O)c3C(=O)[C@]1(OC)[C@H](O)C2)C(=O)C=C(N[C@H]1O[C@@H](C)[C@H](OC)[C@@H](O)[C@H]1OC)C4=O [Example 7, (6R,6aS,14aR)-Methyl 1-(benzyloxy)-6,8,14a-trihydroxy-11-((2S,3R,4R,5R,6S)-4-hydroxy-3,5-dimethoxy-6-methyltetrahydro-2H-pyran-2-ylamino)-6a-methoxy-3-methyl-7,9,12,14-tetraoxo-5,6,6a,7,9,12,14,14a-octahydrobenzo[a]tetracene-2-carboxylate] | 0.12 µg/mL (≈ 0.152 µM)
10 | CCOC(=O)CCC1(O)C(N[C@H]2O[C@@H](C)[C@H](OC)[C@@H](O)[C@H]2OC)=CC(=N)c2c1cc1c(c2O)C(=O)[C@]2(OC)[C@H](O)Cc3cc(C)c(C(=O)OC)c(O)c3[C@]2(O)C1=O (stereo partly drawn) [Example 59, (6R,6aS,14aR)-methyl 12-(3-ethoxy-3-oxopropyl)-1,6,8,12,14a-pentahydroxy-11-((2S,3R,4R,5R,6S)-4-hydroxy-3,5-dimethoxy-6-methyltetrahydro-2H-pyran-2-ylamino)-9-imino-6a-methoxy-3-methyl-7,14-dioxo-5,6,6a,7,9,12,14,14a-octahydrobenzo[a]tetracene-2-carboxylate] | 32 µg/mL (≈ 40.1 µM)
11 | C/N=C1\C=C(N[C@H]2O[C@@H](C)[C@H](OC)[C@@H](O)[C@H]2OC)C(=O)c2cc3c(c(O)c21)C(=O)[C@]1(OC)[C@H](O)Cc2cc(C)c(C(=O)OC)c(O)c2[C@]1(O)C3=O [Example 44, (6R,6aS,14aR,E)-Methyl 1,6,8,14a-tetrahydroxy-11-((2S,3R,4R,5R,6S)-4-hydroxy-3,5-dimethoxy-6-methyltetrahydro-2H-pyran-2-ylamino)-6a-methoxy-3-methyl-9-(methylimino)-7,12,14-trioxo-5,6,6a,7,9,12,14,14a-octahydrobenzo[a]tetracene-2-carboxylate] | 1 to 2 µg/mL (≈ 1.41 to 2.81 µM)
12 | CO[C@@H]1[C@@H](O)[C@@H](OC)C(NC2=CC(=O)c3c(cc4c(c3O)C(=O)[C@]3(OC)[C@H](O)Cc5cc(C)c(C(=O)NCCCc6ccccc6)c(O)c5[C@]3(O)C4=O)C2=O)O[C@H]1C (mixture of isomers) [Example 25, (6R,6aS,14aR)-1,6,8,14a-Tetrahydroxy-11-((3R,4R,5R,6S)-4-hydroxy-3,5-dimethoxy-6-methyltetrahydro-2H-pyran-2-ylamino)-6a-methoxy-3-methyl-7,9,12,14-tetraoxo-N-(3-phenylpropyl)-5,6,6a,7,9,12,14,14a-octahydrobenzo[a]tetracene-2-carboxamide] | 2 to 4 µg/mL (≈ 2.5 to 4.99 µM)
